Here are results for 21 molecules from ChEMBL document CHEMBL4732160, “Design and synthesis of 7-O-1,2,3-triazole hesperetin derivatives to relieve inflammation of acute liver injury in mice” (Eur J Med Chem, 2021).

Active and inactive are the calls of the source. The calls are words filed in the database; no cut-off is given here.

The test system of data set [1] is RAW264.7. The data set can be described thus: Antiinflammatory activity in mouse RAW264.7 cells assessed as inhibition of LPS-induced IL1beta production at 10 uM preincubated for 1 hr followed by LPS stimulation and measured after 22 hrs by ELISA. In kind it is functional, cell-based. The note with it: time 23.0 hrs. Background: ELISA stands for enzyme-linked immunosorbent assay.

Data set [2] relates to RAW264.7. Put plainly: Antiinflammatory activity in mouse RAW264.7 cells assessed as inhibition of LPS-induced NO production preincubated for 2 hrs followed by LPS stimulation and measured after 24 hrs by Griess method. In kind it is functional, cell-based.
Data set [3] concerns RAW264.7. The data set can be described thus: Antiinflammatory activity in mouse RAW264.7 cells assessed as inhibition of LPS-induced TNFalpha production at 10 uM preincubated for 1 hr followed by LPS stimulation and measured after 22 hrs by ELISA. In kind it is functional, cell-based. The note with it: time 23.0 hrs.
Data set [4] in a line: Cytotoxicity against mouse RAW264.7 cells assessed as cell viability at 40 uM measured after 24 hrs by MTT assay relative to control. In kind it is cell-based.
In data set [5] the test system is RAW264.7. The data set can be described thus: Antiinflammatory activity in mouse RAW264.7 cells assessed as inhibition of LPS-induced NO production at 10 uM preincubated for 2 hrs followed by LPS stimulation and measured after 24 hrs by Griess method relative to control. It is filed as functional. The settings on record: time 26 hrs. For orientation: Griess reagent forms a coloured azo dye with nitrite.

For data set [6], the system named is RAW264.7. Put plainly: Antiinflammatory activity in mouse RAW264.7 cells assessed as inhibition of LPS-induced IL6 production at 10 uM preincubated for 1 hr followed by LPS stimulation and measured after 22 hrs by ELISA. In kind it is functional, cell-based. The settings on record: time 23.0 hrs.

On to `COc1ccc([C@@H]2CC(=O)c3c(O)cc(O)cc3O2)cc1O` [HESPERETIN], for which the inhibition result in data set [1], in data set [3] and in data set [6] was “Active” each time. In data set [2], the half-inhibitory concentration (IC50) came to 48.6 µM. For the same molecule, the viability at 24 h, 40 µM in data set [4] came out at 121%. In data set [5], the inhibition at 10 µM turned out to be 18.4%.
With `COc1ccc([C@@H]2CC(=O)c3c(O)cc(OCc4cn(Cc5cccc(C(F)(F)F)c5)nn4)cc3O2)cc1O`, the inhibition result in data set [1], in data set [3] and in data set [6] was “Active” each time. Further, the IC50 in data set [2] amounted to 19.9 µM. For the same molecule, the viability at 24 h, 40 µM in data set [4] turned out to be 93%. The inhibition at 10 µM in data set [5] is 35.5%.
As for `COc1ccc([C@@H]2CC(=O)c3c(O)cc(OCc4cn(Cc5cccc(C)c5)nn4)cc3O2)cc1O`, the inhibition result in data set [1], in data set [3] and in data set [6] was “Active” each time. Further, the half-inhibitory concentration (IC50) in data set [2] was found to be 17.4 µM. Also, the viability at 24 h, 40 µM in data set [4] was found to be 113%. The inhibition at 10 µM in data set [5] worked out at 31%.
As to `COc1ccc([C@@H]2CC(=O)c3c(O)cc(OCc4cn(CC5CC5)nn4)cc3O2)cc1O`, the inhibition entry in data set [1], in data set [3] and in data set [6] was “Active” throughout. Also, the IC50 in data set [2] was 11.9 µM. Also, the viability at 24 h, 40 µM in data set [4] was 87%. In data set [5], the inhibition at 10 µM stood at 48.8%.
In the case of `CCn1cc(COc2cc(O)c3c(c2)O[C@H](c2ccc(OC)c(O)c2)CC3=O)nn1`, the inhibition result in data set [1], in data set [3] and in data set [6] was “Active” each time. For the same molecule, the IC50 in data set [2] was 15 µM. The viability at 24 h, 40 µM in data set [4] was found to be 106%. Also, in data set [5], the inhibition at 10 µM is 41.4%.
Regarding `COc1ccc([C@@H]2C/C(=N\O)c3c(O)cc(OCc4cn(Cc5ccccc5F)nn4)cc3O2)cc1O`, the inhibition result in data set [1], in data set [3] and in data set [6] was “Active” in each case. Moreover, the IC50 in data set [2] worked out at 5.71 µM. In addition, the viability at 24 h, 40 µM in data set [4] was determined as 82%. For the same molecule, in data set [5], the inhibition at 10 µM came out at 65.4%.
As for `COc1ccc([C@@H]2C/C(=N\O)c3c(O)cc(OCc4cn(Cc5ccccc5Cl)nn4)cc3O2)cc1O`, the inhibition result in data set [1], in data set [3] and in data set [6] was “Active” each time. The half-maximal inhibitory concentration (IC50) in data set [2] came to 13.3 µM. Besides, in data set [4], the viability at 24 h, 40 µM was 86%. In addition, the inhibition at 10 µM in data set [5] turned out to be 33%.
For `COc1ccc([C@@H]2CC(=O)c3c(O)cc(OCc4cn(Cc5ccc(C(F)(F)F)cc5)nn4)cc3O2)cc1O`, the inhibition result in data set [1], in data set [3] and in data set [6] was “Active” throughout. For the same molecule, the IC50 in data set [2] is 17.7 µM. Besides, the viability at 24 h, 40 µM in data set [4] was found to be 66%. Besides, in data set [5], the inhibition at 10 µM is 36.4%.
As to `COc1ccc([C@@H]2CC(=O)c3c(O)cc(OCc4cn(Cc5ccccc5F)nn4)cc3O2)cc1O`, the inhibition entry in data set [1], in data set [3] and in data set [6] was “Active” in each case. Also, in data set [2], the half-maximal inhibitory concentration (IC50) was 7.32 µM. In addition, the viability at 24 h, 40 µM in data set [4] came out at 74%. Besides, in data set [5], the inhibition at 10 µM is 63.3%.
`COc1ccc([C@@H]2CC(=O)c3c(O)cc(OCc4cn(Cc5ccccc5C)nn4)cc3O2)cc1O`: the inhibition entry in data set [1], in data set [3] and in data set [6] was “Active” throughout. Moreover, the IC50 in data set [2] turned out to be 13.1 µM. Further, the viability at 24 h, 40 µM in data set [4] was 100%. The inhibition at 10 µM in data set [5] stood at 45.7%.
As for `COc1ccc([C@@H]2CC(=O)c3c(O)cc(OCc4cn(Cc5ccc(C)cc5)nn4)cc3O2)cc1O`, the inhibition entry in data set [1], in data set [3] and in data set [6] was “Active” each time. For the same molecule, the 50% inhibitory concentration (IC50) in data set [2] amounted to 16.8 µM. In data set [4], the viability at 24 h, 40 µM worked out at 110%. Also, the inhibition at 10 µM in data set [5] turned out to be 29.4%.
As to `COc1ccc([C@@H]2CC(=O)c3c(O)cc(OCc4cn(C5CCCC5)nn4)cc3O2)cc1O`, the inhibition result in data set [1], in data set [3] and in data set [6] was “Active” each time. Also, the IC50 in data set [2] came to 10.5 µM. For the same molecule, the viability at 24 h, 40 µM in data set [4] was found to be 110%. Also, the inhibition at 10 µM in data set [5] was found to be 53.8%.
For `COc1ccc([C@@H]2C/C(=N\O)c3c(O)cc(OCc4cn(CC5CC5)nn4)cc3O2)cc1O`, the inhibition result in data set [1], in data set [3] and in data set [6] was “Active” in each case. In addition, the IC50 in data set [2] was determined as 6.32 µM. The viability at 24 h, 40 µM in data set [4] was determined as 86%. Moreover, in data set [5], the inhibition at 10 µM turned out to be 67%.
As for `COc1ccc([C@@H]2CC(=O)c3c(O)cc(OCc4cn(CC(=O)c5ccccc5OC)nn4)cc3O2)cc1O`, the inhibition entry in data set [1], in data set [3] and in data set [6] was “Active” each time. The IC50 in data set [2] was found to be 18.9 µM. Besides, the viability at 24 h, 40 µM in data set [4] was found to be 132%. Moreover, the inhibition at 10 µM in data set [5] came to 22.8%.
Take `COc1ccc([C@@H]2CC(=O)c3c(O)cc(OCc4cn(Cc5ccccc5C(F)(F)F)nn4)cc3O2)cc1O`: the inhibition result in data set [1], in data set [3] and in data set [6] was “Active” in each case. The 50% inhibitory concentration (IC50) in data set [2] was determined as 12.5 µM. For the same molecule, the viability at 24 h, 40 µM in data set [4] was 135%. The inhibition at 10 µM in data set [5] came out at 48%.
On to `COc1ccc([C@@H]2C/C(=N\O)c3c(O)cc(OCc4cn(Cc5ccccc5C)nn4)cc3O2)cc1O`, for which the inhibition result in data set [1], in data set [3] and in data set [6] was “Active” each time. The IC50 in data set [2] turned out to be 18 µM. Besides, in data set [4], the viability at 24 h, 40 µM was found to be 83%. Also, the inhibition at 10 µM in data set [5] is 22.5%.
In the case of `COc1ccc([C@@H]2C/C(=N\O)c3c(O)cc(OCc4cn(Cc5ccccc5)nn4)cc3O2)cc1O`, the inhibition entry in data set [1], in data set [3] and in data set [6] was “Active” each time. Moreover, the half-maximal inhibitory concentration (IC50) in data set [2] was 6.13 µM. For the same molecule, in data set [4], the viability at 24 h, 40 µM amounted to 93%. The inhibition at 10 µM in data set [5] was found to be 63.6%.
With `CCCCn1cc(COc2cc(O)c3c(c2)O[C@H](c2ccc(OC)c(O)c2)C/C3=N\O)nn1`, the inhibition result in data set [1], in data set [3] and in data set [6] was “Active” in each case. Moreover, the concentration for half-maximal inhibition (IC50) in data set [2] was determined as 8.9 µM. In addition, in data set [4], the viability at 24 h, 40 µM was 62%. Besides, the inhibition at 10 µM in data set [5] came to 56.9%.
On to `COc1ccc([C@@H]2CC(=O)c3c(O)cc(OCc4cn(Cc5ccc(F)cc5)nn4)cc3O2)cc1O`, for which the inhibition entry in data set [1], in data set [3] and in data set [6] was “Active” in each case. In data set [2], the IC50 was 15.1 µM. Also, in data set [4], the viability at 24 h, 40 µM was found to be 101%. For the same molecule, the inhibition at 10 µM in data set [5] was 41.4%.
As to `COc1ccc([C@@H]2CC(=O)c3c(O)cc(OCc4cn(CCCO)nn4)cc3O2)cc1O`, the inhibition result in data set [1], in data set [3] and in data set [6] was “Active” each time. Also, in data set [2], the IC50 was determined as 16.7 µM. In addition, the viability at 24 h, 40 µM in data set [4] was 121%. Besides, the inhibition at 10 µM in data set [5] is 32.8%.
Turning to `COc1ccc([C@@H]2CC(=O)c3c(O)cc(OCc4cn(Cc5cccc(C#N)c5)nn4)cc3O2)cc1O`, the inhibition entry in data set [1], in data set [3] and in data set [6] was “Active” in each case. Besides, the IC50 in data set [2] came out at 18 µM. Further, the viability at 24 h, 40 µM in data set [4] turned out to be 56%. For the same molecule, the inhibition at 10 µM in data set [5] is 32.9%.

Broadly, the inhibition is the percentage by which the read-out fell short of the control. One may read the IC50 as the concentration at which inhibition is half-maximal. By viability is commonly meant a read-out of living cells in per cent, often relative to untreated cells.
